The results in this text go back to US20120010266A1, “TBC1D7 AS TUMOR MARKER AND THERAPEUTIC TARGET FOR CANCER” (Oncotherapy Science Inc.,, priority 2008, published 2012).

For one data set, the system named is TSC1. Put plainly: si-TSC1 treatment of LC319 cells: TSC1 and TBC1D7 transcript and protein levels (semiquantitative RT-PCR, western blot). Format: cell-based, human. The conditions noted are these: for TBC1D7 protein level: LC319 cells treated with siRNA against TSC1, western blot. On the procedure:
Total RNA was extracted from cultured cells and clinical tissues using Trizol reagent (Life Technologies, Inc.) according to the manufacturer's protocol. Extracted RNAs were treated with DNase I (Nippon Gene) and reversely-transcribed using oligo (dT) primer and SuperScript II reverse transcriptase (Invitrogen). Semiquantitative RT-PCR experiments were carried out with the following synthesized TBC1D7-specific primers or with beta-actin (ACTB)-specific primers as an internal control: TBC1D7, 5′-[…]-3′ (SEQ ID NO.: 5) or 5′-[…]-3′ (SEQ ID NO.:15) and 5′-[…]-3′ (SEQ ID NO.: 6); TSC1, 5′-[…]-3′ (SEQ ID NO.:16) and 5′-[…]-3′ (SEQ ID NO.:17); ACTB, 5′-[…]-3′ (SEQ ID NO.: 7) and 5′-[…]-3′ (SEQ ID NO.: 8). PCR reactions were optimized for the number of cycles to ensure product intensity within the logarithmic phase of amplification.
Cells were lysed in lysis buffer; 50 mM Tris-HCl (pH 8.0), 150 mM NaCl, 0.5% NP-40, 0.5% deoxycholate-Na, 0.1% SDS, plus protease inhibitor (Protease Inhibitor Cocktail Set III; Calbiochem). It was used an ECL western-blotting analysis system (GE Healthcare Bio-sciences), as previously described (Takahashi K. et al. Cancer Res 2006; 66:9408-19).
Small interfering RNA (siRNA) duplexes (100 nM) were transfected into a NSCLC cell line, A549 and LC319, using 24 microL of Lipofectamine 2000 (Invitrogen) following the manufacturer's protocol. The transfected cells were cultured for 7 days, and the number of colonies was counted by Giemsa staining, and viability of cells was evaluated by 3-(4,5-dimethylthiazol-2-yl)-2,5-diphenyltetrazolium bromide (MTT) assay (cell counting kit-8 solution; Dojindo Laboratories), at 7 days after transfection. To confirm suppression of TBC1D7 and TSC1 expression, western blotting using antibodies to TBC1D7 and TSC1 as well as semiquantitative RT-PCR with synthesized primers specific for TBC1D7 and TSC1 were carried out as described above. SiRNA sequences against human TBC1D7 and TSC1 were as follows, si-TBC1D7#3: GAACAGUGCAGAGAAGAUA (SEQ ID NO.:18), si-TBC1D7#4: GAUAAAGUUGUGAGUGGAU (SEQ ID NO.:19), and si-TSC1: CGACACGGCUGAUAACUGA (SEQ ID NO.:20). The present inventors also designed siRNA oligonucleotides against control-1 (LUC: luciferase gene from Photinus pyralis), 5′-CGUACGCGGAAUACUUCGA-3′ (SEQ ID NO.:21) and control-2 (EGFP: enhanced green fluorescent protein (GFP) gene, a mutant of Aequorea victoria GFP), 5′-GAAGCAGCACGACUUCUUC-3′ (SEQ ID NO.:22).
A general note: Immunoblotting shows a protein as a band on a membrane.

The subject of data set [1] is p-rpS6 (Ser235/236), downstream target of mTORC1. Put plainly: Effect of TSC1 knockdown on mTORC1 pathway in LC319 cells (phosphorylation of rpS6). The conditions noted are these: LC319 cells treated with siRNA against TSC1. Format: cell-based, human.
The target of data set [2] is T1, endogenous TSC1 protein (human, lung cancer LC319 cells) (human, UniProt Q92574 1-1164, limits assumed).
T1 construct: Endogenous protein in LC319 cell extracts
T1 sequence: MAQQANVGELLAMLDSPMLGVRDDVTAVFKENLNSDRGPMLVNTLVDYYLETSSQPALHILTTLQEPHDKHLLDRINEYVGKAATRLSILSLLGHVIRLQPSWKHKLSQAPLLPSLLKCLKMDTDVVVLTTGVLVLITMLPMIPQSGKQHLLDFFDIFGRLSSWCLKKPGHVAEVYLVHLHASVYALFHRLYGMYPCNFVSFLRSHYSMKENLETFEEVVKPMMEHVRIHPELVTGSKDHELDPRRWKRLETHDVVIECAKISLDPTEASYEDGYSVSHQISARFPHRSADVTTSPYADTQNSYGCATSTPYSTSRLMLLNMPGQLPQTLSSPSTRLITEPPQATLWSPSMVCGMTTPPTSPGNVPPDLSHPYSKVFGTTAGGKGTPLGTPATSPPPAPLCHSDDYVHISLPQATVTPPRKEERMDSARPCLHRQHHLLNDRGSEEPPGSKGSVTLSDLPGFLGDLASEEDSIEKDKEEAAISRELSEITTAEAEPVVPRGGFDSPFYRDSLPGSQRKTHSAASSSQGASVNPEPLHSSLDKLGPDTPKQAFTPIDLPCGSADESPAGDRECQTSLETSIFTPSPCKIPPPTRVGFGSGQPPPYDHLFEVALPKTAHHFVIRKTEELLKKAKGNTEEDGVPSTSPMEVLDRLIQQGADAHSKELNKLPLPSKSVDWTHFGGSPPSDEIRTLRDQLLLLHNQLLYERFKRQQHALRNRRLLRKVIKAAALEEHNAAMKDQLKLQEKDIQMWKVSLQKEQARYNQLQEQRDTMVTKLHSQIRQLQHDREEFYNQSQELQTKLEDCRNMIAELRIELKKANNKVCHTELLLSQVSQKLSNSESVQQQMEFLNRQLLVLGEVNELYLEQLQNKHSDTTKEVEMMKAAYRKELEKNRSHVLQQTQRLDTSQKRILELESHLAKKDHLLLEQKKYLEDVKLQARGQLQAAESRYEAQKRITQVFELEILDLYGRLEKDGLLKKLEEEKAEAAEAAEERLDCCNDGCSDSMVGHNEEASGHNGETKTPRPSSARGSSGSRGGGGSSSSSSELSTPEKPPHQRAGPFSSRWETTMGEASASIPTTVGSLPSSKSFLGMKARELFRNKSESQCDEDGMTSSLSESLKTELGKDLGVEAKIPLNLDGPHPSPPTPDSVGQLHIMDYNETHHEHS
Put plainly: immunoprecipitation experiments using LC319 cells, as the legend of FIG. 5A says. The source says:
FIG. 5 depicts identification of TSC1-interacting region in TBC1D7 and inhibition of growth of lung cancer cells by dominant-negative peptides of TBC1D7. A, Left panel, Schematic drawing of six N-terminal Flag-tagged TBC1D7 partial protein constructs lacking either or both of the terminal regions. Right panels, Identification of the region in TBC1D7 that binds to TSC1 by immunoprecipitation experiments using LC319 cells. The TBC1D7₁₁₂₋₁₇₁ construct, which corresponds to a center region in TBC domain, was indicated to be TSC1-interacting region. B, Left top panel, Schematic drawing of three cell permeable peptides of TBC1D7 covering TBC1D7₁₁₂₋₁₇₁ that corresponds to the TSC1-interacting region in TBC1D7. B, Right top panels, Reduction of the complex formation between endogenous TSC1 and endogenous TBC1D7 proteins, detected by immunoprecipitation assay in LC319 cells that were treated with the 11R-TBC₁₅₂₋₁₇₁ peptides. C, MTT assay showing growth suppressive effect of 11R-TBC₁₅₂₋₁₇₁ peptides that were introduced into LC319 cells that expressed both TBC1D7 and TSC1 proteins. Bars, SD of triplicate assays. D, Left panels, Expressions of TBC1D7 and TSC1 proteins in lung cancer cell line LC319 and normal human lung fibroblast-derived CCD19Lu cells, examined by western blot analysis. […]

Data set [3] has as its target T2, flag-TBC1D7 (exogenous TBC1D7 transiently expressed in COS-7 cells) (human, UniProt Q9P0N9 1-293).
T2 construct: The only full-length flag vector described is pCAGGSn3FC, with 3xflag at the C-terminus, so it may be the same construct as m2; The order of the parts is therefore uncertain
T2 sequence: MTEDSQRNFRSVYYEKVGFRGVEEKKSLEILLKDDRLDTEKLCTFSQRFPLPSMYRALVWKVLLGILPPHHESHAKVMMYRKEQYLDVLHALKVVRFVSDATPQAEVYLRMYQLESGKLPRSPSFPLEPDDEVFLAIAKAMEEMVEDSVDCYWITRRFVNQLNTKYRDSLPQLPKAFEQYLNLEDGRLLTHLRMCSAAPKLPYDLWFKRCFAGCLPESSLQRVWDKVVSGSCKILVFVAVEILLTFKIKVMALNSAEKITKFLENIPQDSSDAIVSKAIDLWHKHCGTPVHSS
The experiment in a line: co-immunoprecipitation from COS-7 cells expressing flag-TBC1D7 and Myc-RAB17 (FIG. 4B). The procedure:
FIG. 4 depicts interaction of TBC1D7 with binding proteins. A, Interaction of exogenous TBC1D7 with endogenous 14-3-3 zeta protein in COS-7 cells. Immunoprecipitations were carried out using anti-flag M2 agarose and extracts from COS-7 cells transiently expressing flag-TBC1D7. Immunoprecipitates were subjected to western-blot analysis to detect endogenous 14-3-3. B, Interaction of exogenous TBC1D7 with exogenous RAB 17 protein in COS-7 cells. Immunoprecipitations were carried out using anti-flag M2 agarose and extracts from COS-7 cells transiently expressing flag-TBC1D7 and/or Myc-RAB17. Immunoprecipitates were subjected to western-blot analysis to detect exogenous RAB 17. IB, immunoblotting; IP, immunoprecipitation. C, Expression of TSC1 and TBC1D7 in lung cancer cells. […] Left panels, The levels of TSC1 and TBC1D7 transcripts and proteins, detected by semiquantitative RT-PCR analysis and western-blot analysis in LC319 cells transfected with si-TSC1. Right panels, The levels of TSC1 and TBC1D7 transcripts and proteins, detected by semiquantitative RT-PCR analysis and western-blot analysis in LC319 cells transfected with TSC1 expression vector. F, The levels of endogenous TSC1 and TBC1D7 proteins, detected by western blot analysis in LC319 cells that were initially transfected with si-TSC1, and were subsequently transfected with TSC1 expression vector 24 hours after the siRNA transfection. […]

On to “si-TSC1: siRNA sequence against human TSC1: CGACACGGCUGAUAACUGA (SEQ ID NO: 20) (listed as RNA, chemistry not given here)”, for which the “transcription level of TBC1D7” value in the data set on TSC1 (LC319 cells treated with si-TSC1, semiquantitative RT-PCR) was “unchanged”. Also, the TBC1D7 protein level entry with TSC1 was “decreased”; in the data set with TSC1 (listed as siRNA against TSC1) it was “Reduced levels”. For the same molecule, the “expression of the endogenous TSC1” value in the data set with TSC1 (LC319 cells, in comparison to control siRNA (si-EGFP)) is recorded as “suppressed”. Besides, in data set [1], the “levels of p-rpS6 (Ser235/236) protein” value is reported as “not changed”.

B1: TBC112-171, N-terminal Flag-tagged TBC1D7 partial protein construct (other, not shown: small tags and cut ends)
chain: YQLESGKLPRSPSFPLEPDDEVFLAIAKAMEEMVEDSVDCYWITRRFVNQLNTKYRDSLP
B1: in data set [2], the binding result was “binds”.

B2: Myc-RAB17 (pcDNA3.1 Myc-His RAB17), exogenous RAB17 expressed in COS-7 cells (other)
chain: MAQAHRTPQPRAAPSQPRVFKLVLLGSGSVGKSSLALRYVKNDFKSILPTVGCAFFTKVVDVGATSLKLEIWDTAGQEKYHSVCHLYFRGANAALLVYDITRKDSFLKAQQWLKDLEEELHPGEVLVMLVGNKTDLSQEREVTFQEGKEFADSQKLLFMETSAKLNHQVSEVFNTVAQELLQRSDEEGQALRGDAAVALNKGPARQAKCCAH
notes: not shown: Myc-His tag of the pcDNA3.1 Myc-His vector
Consider B2, for which, in data set [3], the binding result is on record as “binds”.
